Series [1] relates to WM-266-4 cells. Put plainly: Adhesion assay with WM-266-4 cells on fibronectin. The series is classed as cell-based, human. Here is the method:
Microtiter plates with 96 wells were coated with 0.5 µg of fibronectin in 50 µl over night at 4° C and blocked with 200 µl adhesion buffer (1% BSA in PBS without Ca^2+/Mg^2+). WM-266-4 cells were pre-incubated with the test compounds at the respective concentrations in serum free medium for 60 min in a shaker (600 rpm) at 37° C. Afterwards, 4 x 10^4 cells in 100 µl were withdrawn and added into each well and incubated for 1 h at 37° C. Medium and non-adherent cells were aspirated and adherent cells were fixed in 4% formalin in PBS. The plates were washed with 0.01 M borate buffer (Stock-solution: 20 mM boric acid, 100 mM sodium tetraborate; pH 8.5; working solution: 0.01 M dilution in H2O) and 50 µl of 0.01 % methylene blue in borate buffer were added, wherein the cells were stained for 10 min at room temperature. The plates were extensively washed with water and air-dried. The air-dried plates were incubated for 45 min with 200 µl/well extraction buffer (a mixture of 0.1 N HCl and absolute EtOH (1:1, vol/vol)), wherein the adherent cells were quantified in an ELISA-reader, which read the extinction at 651 nm.
The human melanoma cells adhered to the fibronectin coated cell culture dishes. This adhesion is a prerequisite for growth of circulating cells such as occurs when these metastasize to sites distant from the tumor. The compounds described herein can inhibit such adhesion to the extracellular matrix protein fibronection or laminin to various degrees.

For another series, the system named is WM-266-4. Particulars: WM-266-4, 2.5 mM; cited from earlier work.
In series [2] the test system is WM-115. Particulars: WM-115, at 5 mM; cited from earlier work.
Series [3] relates to matrix-metalloproteinase-2 (MMP-2). Particulars: cited from earlier work.
The test system of the next series is murine B16F10 cells. To be noted: cited from earlier work.
In a further series the test system is WM-115 cells. Put plainly: Wound healing assay (cell migration). It counts as cell-based, human. Also noted: key to inhibit the cell migration of WM-115 cells: (-) means that the cell migration was not inhibited and that the wound healed; (+) means a slight inhibition, which slows the trend to heal; (++) means that the cell migration was inhibited, since only some cells were visible in the wound; (+++) means the absolute inhibition of cell migration. To be noted: for concentration at which the migration of human melanoma cells is inhibited: summary of Table 1. On the procedure: The compounds of the present invention were analyzed by means of a migration-assay, called "wound healing assay", that determines the inhibition-rate of the compounds on human melanoma cell line migration. Another migration assay, the so-called the Oris™ cell migration assay, is also applicable to examine the cell migration inhibitory effects of the compounds of the present invention. The used melanoma cells lines were WM-115 and WM-266-4, which are accepted in-vitro model cell systems. The human cell line WM-115 is derived from the primary tumor of a vertical growth phase (VGP) melanoma, whereas the cell line WM-266-4 is derived from the corresponding cutaneous metastasis. The "wound healing assay" is applicable to examine the cell migration inhibitory effects of the compounds of the present invention, which is described in further detail in the Examples. Furthermore, the "wound healing assay" is based on the fact that when wounded or scratched, cell monolayers respond to the disruption of cell-cell contacts and an increased concentration of growth factors at the wound margin by healing the wound through a combination of proliferation and migration, according to Yarrow, J.C., et al., BMC Biotechnol., 2004: 4, 21-29. In order to investigate the cell migration an intact cell monolayer is wounded with a pipette tip.
The wound healing assay has been carried out according to description as disclosed in Yarrow, J.C., et al., BMC Biotechnol., 2004: 4, 21-29. For carrying out the wound healing assay, 2 x 10^5 cells were grown in one well of a 12-well-plate under cell culture specific conditions for 24 h. After 24 h, a wound has been scratched in the confluently grown cell monolayer with a 100 µl pipette-tip. Detached cells were removed by washing with serum-free medium and new media with the respective compounds to be tested were supplemented with varying amounts. The cells were incubated under cell culture specific conditions and always the same section was photographed after 2, 4, 8 and 24 under the phase contrast microscope. The untreated cells healed the wound through a combination of proliferation and migration after 24 h.
The following table (Table 1) is a summary of the results obtained by carrying out the above described wound healing assay with varying amounts of compounds of the present invention to inhibit the cell migration of WM-115 cells, wherein (-) means that the cell migration was not inhibited and that the wound healed, (+) means a slight inhibition, which slows the trend to heal, (++) means that the cell migration was inhibited, since only some cells were visible in the wound, and (+++) means the absolute inhibition of cell migration. The abbreviation "n.d." means "not determined".

The subject of series [4] is WM-266-4 cells. To be noted: WM-266-4, at 5 mM; cited from earlier work.
For series [5], the system named is WM-115. Particulars: WM-115, 5 mM; cited from earlier work.
In the next series the test system is human WM-115 cells. To be noted: cited from earlier work.
Another series has as its system HBMEC-60 cells. Put plainly: Adhesion assay with HBMEC cells (TNF-α stimulated) on laminin. The series is classed as cell-based, human. Here is the method:
Microtiter plates with 96 wells coated with the extracellular matrix component type I collagen, fibronenctin or laminin were used. HBMEC-60 cells which had been pre-incubated with the tumor necrosis factor (TNF-α, 40 ng/ml) for 24 hrs were incubated with the test compounds at the respective concentrations in serum free medium for endothelial cells (Promozell, Heidelberg, Germany) without growth factors for 30 min in 1.5 mL microfuge tubes (Eppendorf, Hamburg, Germany). Afterwards, 4 x 10^4 HBMEC-60 cells in 100 µl were withdrawn and added into each well. The plates were incubated at 37° C for 30 min and subsequently washed twice with PBS (with CaCl2 und MgSO4). Then, the adherent cells were fixed, washed and stained with methylene blue, the dye released and the extinction read as described above for the experiments with the melanoma cells.
Adhesion of endothelial cells to extracellular matrix proteins like laminin is a prerequisite for angiogenesis.

Series [6] concerns human melanoma cells.
Series [7] concerns human melanoma cells. Briefly: Vitality test with Trypanblue. To be noted: cells of the migration assay.

Where two headings read alike, the source gives them in different places.

What is called inhibition is the percentage by which the read-out fell short of the control.

Take `O=S(=O)(O)OCc1cocc1CO[C@@H]1O[C@H](CO)[C@H](O)[C@H](O)[C@H]1O` [GSF, 3-β-D-galactopyranosyl-oxymethyl-4-sulfato-methyl-furan]: the results for the “inhibition of the adhesion of WM-266-4 cells to fibronectin” value in the series on WM-266-4 cells [1] (concentration of 0.1 mM) and in the series with WM-266-4 cells [1] (concentration of 5 mM) were 8% and 26%, respectively. Moreover, the “inhibition of cell migration into a wound” value in the series with WM-266-4 and in the series on WM-115 [5] was “no detectable migration” throughout. The inhibition of migration result with WM-115 [2] and with WM-266-4 cells [4] was “inhibited” throughout. Further, in series [3], the “activation of the matrix-metalloproteinase-2 (MMP-2)” value was “decreased”. Besides, the “inhibition of adhesion to fibrinogen” value in the series on murine B16F10 cells (at 20 mM or rather 10 mM) and in the series with human WM-115 cells (at 20 mM or rather 10 mM) was “completely inhibits” in each case. The “inhibition of adhesion to fibronectin” value in the series on murine B16F10 cells (at 40 mM) and with human WM-115 cells (at 40 mM) was “completely inhibits” each time. The “inhibit the cell migration of WM-115 cells” value (shortened to “inhibit the cell migration”) in the series on WM-115 cells (Concentration 0.1 mM) was “-”; in the series with WM-115 cells (Concentration 1 mM), “-”; in the series on WM-115 cells (Concentration 2.5 mM) it was “+”; in the series on WM-115 cells (Concentration 5mM), “+++”. Moreover, in the series with WM-115 cells, the “concentration at which the migration of human melanoma cells is inhibited” value is recorded as “greater than or equal to 2.5 mM”.
Turning to `O=S(=O)(O)OCc1cocc1CO[C@@H]1O[C@H](COS(=O)(=O)O)[C@H](O)[C@H](O)[C@H]1O` [GSSF, 3-(6-sulfato-β-D-galactopyranosyl-oxymethyl)-4-(sulfatomethyl)-furan], the “inhibition of HBMEC-60 cell adhesion to laminin” value in the series on HBMEC-60 cells (10 mM, compared with 10 mM GSF) is given as “better inhibitor”. Also, in the series on HBMEC-60 cells (concentrations of 0.1, 0.5, 1 and 5 mM), the “inhibition of endothelial cell adhesion to laminin” value was “significantly inhibited”. Also, the “inhibit the cell migration” value in the series on WM-115 cells (Concentration 0.1 mM) is reported as “++”; in the series on WM-115 cells (Concentration 1 mM), “++”; with WM-115 cells (Concentration 2.5 mM), “+++”; in the series on WM-115 cells (Concentration 5mM) it was “+++”. Also, in the series with WM-115 cells, the “concentration at which the migration of human melanoma cells is inhibited” value is 0.1 mM. In addition, the “vitality test with Trypanblue” value in the series on human melanoma cells [6] is given as “cells were intact”.
For `OC[C@H]1O[C@@H](OCc2cocc2CF)[C@H](O)[C@@H](O)[C@H]1O` [GFF, 3-(β-D-galactopyranosyl-oxymethyl)-4-(fluoro-methyl)-furan], the inhibition at 100 µM with WM-266-4 cells [1] (Homo sapiens, WM 266-4, concentration of 0.1 mM) worked out at 34%. In the series on WM-266-4 cells [1] (Homo sapiens, WM 266-4, concentration of 5 mM), this compound displayed an inhibition at 5000 µM of 62%. Further, the “vitality test with Trypanblue” value in the series on human melanoma cells [7] is recorded as “cells were intact”. The “inhibit the cell migration” value in the series with WM-115 cells (Concentration 1 mM) was “+”; in the series on WM-115 cells (Concentration 2.5 mM) it was “+++”; with WM-115 cells (Concentration 5mM) it was “+++”.
Consider `O=S(=O)(O)OCc1cocc1CO[C@@H]1O[C@H](CO)[C@@H](O)[C@H](O)[C@H]1O` [GluSF, 3-(β-D-glucopyranosyl-oxymethyl)-4-(sulfatomethyl)-furan], for which, in the series on WM-266-4 cells [1] (concentration of 5 mM), the “inhibition of the adhesion of WM-266-4 cells to fibronectin” value is recorded as 79%. Moreover, the “inhibit the cell migration” value is on record as “-” in the series on WM-115 cells (Concentration 0.1 mM), “+” in the series with WM-115 cells (Concentration 1 mM), “+” in the series on WM-115 cells (Concentration 2.5 mM) and “+++” in the series with WM-115 cells (Concentration 5mM). The “concentration at which the migration of human melanoma cells is inhibited” value with WM-115 cells turned out to be 1 mM. In addition, the “vitality test with Trypanblue” value with human melanoma cells [6] was “cells were intact”.

The values are drawn from EP2474552A1, “New saccharide mimics and their use as inhibitors of angiogenesis and metastasis formation” (Deutsches Krebsforschungszentrum, priority 2011, dated 2012).
